How the values were obtained:
Assay type in all cases: in vivo
[1] = tested on: velvetleaf (Abutilon theophrasti); experiment: Test A preemergence, velvetleaf; details: 0 to 100 scale
From the text: (§1) Seeds of plant species selected from bamyardgrass (Echinochloa crus-galli), kochia (Kochia scoparia), ragweed (common ragweed, Ambrosia elatior), ryegrass, Italian (Italian ryegrass, Lolium multiflorum), foxtail, giant (giant foxtail, Setaria faberii), pigweed (Amaranthus retroflexus), crabgrass, large (large crabgrass, Digitaria sanguinalis), momingglory (Ipomoea spp.), velvetleaf (Abutilon theophrasti), wheat (Triticum aestivum), and corn (Zea mays) were planted into a blend of loam soil and sand and treated preemergence with a directed soil spray using test chemicals formulated in a non-phytotoxic solvent mixture which included a surfactant. At the same time, plants selected from these crop and weed species and also blackgrass (Alopecurus myosuroides), and galium (catchweed bedstraw, Galium aparine) were planted in pots containing the same blend of loam soil and sand and treated with postemergence applications of test chemicals formulated in the same manner. Plants ranged in height from 2 to 10 cm and were in the one- to two-leaf stage for the postemergence treatment. Treated plants and untreated controls were maintained in a greenhouse for approximately 10 days, after which time all treated plants were compared to untreated controls and visually evaluated for injury. Plant response ratings, summarized in Table A, are based on a 0 to 100 scale where 0 is no effect and 100 is complete control. A dash (-) response means no test result.

[2] = tested on: barnyardgrass (Echinochloa crus-galli); experiment: Test A postemergence, barnyardgrass; details: 0 to 100 scale
From the text: as §1

[3] = tested on: barnyardgrass (Echinochloa crus-galli); experiment: Test A preemergence, barnyardgrass; details: 0 to 100 scale
From the text: as §1

[4] = tested on: foxtail, giant (giant foxtail, Setaria faberii); experiment: Test A preemergence, foxtail, giant; details: 0 to 100 scale
From the text: as §1

[5] = tested on: foxtail, giant (giant foxtail, Setaria faberii); experiment: Test A postemergence, foxtail, giant; details: 0 to 100 scale
From the text: as §1

[6] = tested on: corn (Zea mays); experiment: Test A preemergence, corn; details: 0 to 100 scale
From the text: as §1

[7] = tested on: morningglory (Ipomoea spp.); experiment: Test A preemergence, morningglory; details: 0 to 100 scale
From the text: as §1

[8] = tested on: crabgrass, large (large crabgrass, Digitaria sanguinalis); experiment: Test A postemergence, crabgrass, large; details: 0 to 100 scale
From the text: as §1

[9] = tested on: velvetleaf (Abutilon theophrasti); experiment: Test A postemergence, velvetleaf; details: 0 to 100 scale
From the text: as §1

[10] = tested on: sedge, umbrella (small-flower umbrella sedge, Cyperus difformis); experiment: Test B flooded paddy test, sedge, umbrella; details: Flood, 250 g ai/ha; scale of 0 to 100
Protocol: (§2) Plant species in the flooded paddy test selected from rice (Oryza sativa), sedge, umbrella (small-flower umbrella sedge, Cyperus difformis), ducksalad (Heteranthera limosa), and barnyardgrass (Echinochloa crus-galli) were grown to the 2-leaf stage for testing. At time of treatment, test pots were flooded to 3 cm above the soil surface, treated by application of test compounds directly to the paddy water, and then maintained at that water depth for the duration of the test. Treated plants and controls were maintained in a greenhouse for 13 to 15 days, after which time all species were compared to controls and visually evaluated. Plant response ratings, summarized in Table B, are based on a scale of 0 to 100 where 0 is no effect and 100 is complete control. A dash (-) response means no test result.

[11] = tested on: morningglory (Ipomoea spp.); experiment: Test A postemergence, morningglory; details: 0 to 100 scale
From the text: as §1

[12] = tested on: pigweed (Amaranthus retroflexus); experiment: Test A postemergence, pigweed; details: 0 to 100 scale
From the text: as §1

[13] = tested on: pigweed (Amaranthus retroflexus); experiment: Test A preemergence, pigweed; details: 0 to 100 scale
From the text: as §1

[14] = tested on: wheat (Triticum aestivum); experiment: Test A preemergence, wheat; details: 0 to 100 scale
From the text: as §1

[15] = tested on: rice (Oryza sativa); experiment: Test B flooded paddy test, rice; details: Flood, 250 g ai/ha; scale of 0 to 100
Protocol: as §2

[16] = tested on: crabgrass, large (large crabgrass, Digitaria sanguinalis); experiment: Test A preemergence, crabgrass, large; details: 0 to 100 scale
From the text: as §1

[17] = tested on: ducksalad (Heteranthera limosa); experiment: Test B flooded paddy test, ducksalad; details: Flood, 250 g ai/ha; scale of 0 to 100
Protocol: as §2

[18] = tested on: barnyardgrass (Echinochloa crus-galli); experiment: Test B flooded paddy test, barnyardgrass; details: Flood, 250 g ai/ha; scale of 0 to 100
Protocol: as §2

[19] = tested on: wheat (Triticum aestivum); experiment: Test A postemergence, wheat; details: 0 to 100 scale
From the text: as §1

[20] = tested on: corn (Zea mays); experiment: Test A postemergence, corn; details: 0 to 100 scale
From the text: as §1

[21] = tested on: blackgrass (Alopecurus myosuroides); experiment: Test A postemergence, blackgrass; details: 0 to 100 scale
From the text: as §1

[22] = tested on: ragweed (common ragweed, Ambrosia elatior); experiment: Test A postemergence, ragweed; details: 0 to 100 scale
From the text: as §1

[23] = tested on: ryegrass, Italian (Italian ryegrass, Lolium multiflorum); experiment: Test A preemergence, ryegrass, Italian; details: 0 to 100 scale
From the text: as §1

[24] = tested on: galium (catchweed bedstraw, Galium aparine); experiment: Test A postemergence, galium; details: 0 to 100 scale
From the text: as §1

[25] = tested on: ragweed (common ragweed, Ambrosia elatior); experiment: Test A preemergence, ragweed; details: 0 to 100 scale
From the text: as §1

[26] = tested on: ryegrass, Italian (Italian ryegrass, Lolium multiflorum); experiment: Test A postemergence, ryegrass, Italian; details: 0 to 100 scale
From the text: as §1

[27] = tested on: kochia (Kochia scoparia); experiment: Test A postemergence, kochia; details: 0 to 100 scale
From the text: as §1

[28] = tested on: kochia (Kochia scoparia); experiment: Test A preemergence, kochia; details: 0 to 100 scale
From the text: as §1

Clc1cnc(Oc2cccnc2-n2cc(Br)cn2)nc1 [Compound 1, 2-[[2-(4-bromo-1H-pyrazol-1-yl)-3-pyridinyl]oxy]-5-chloropyrimidine]
0: Plant response rating, Barnyardgrass ([2]; 125 g ai/ha) | Plant response rating, Corn ([6]; 125 g ai/ha) | Plant response rating, Corn ([6]; 500 g ai/ha) | Plant response rating, Morningglory ([7]; 500 g ai/ha) | Plant response rating, Wheat ([14]; 125 g ai/ha) | Plant response rating, Rice [15] | Plant response rating, Barnyardgrass [18]
20: Plant response rating, Foxtail, Giant ([4]; 125 g ai/ha) | Plant response rating, Velvetleaf ([9]; 125 g ai/ha) | Plant response rating, Wheat ([19]; 500 g ai/ha) | Plant response rating, Corn ([20]; 500 g ai/ha)
30: Plant response rating, Velvetleaf ([1]; 500 g ai/ha) | Plant response rating, Foxtail, Giant ([5]; 500 g ai/ha)
80: Plant response rating, Foxtail, Giant ([4]; 500 g ai/ha) | Plant response rating, Morningglory ([11]; 500 g ai/ha)
40: Plant response rating, Crabgrass, Large ([16]; 125 g ai/ha)
100: Plant response rating, Pigweed ([12]; 500 g ai/ha) | Plant response rating, Crabgrass, Large ([16]; 500 g ai/ha)
10: Plant response rating, Velvetleaf ([1]; 125 g ai/ha) | Plant response rating, Barnyardgrass ([2]; 500 g ai/ha) | Plant response rating, Barnyardgrass ([3]; 125 g ai/ha) | Plant response rating, Foxtail, Giant ([5]; 125 g ai/ha) | Plant response rating, Crabgrass, Large ([8]; 125 g ai/ha) | Plant response rating, Morningglory ([11]; 125 g ai/ha) | Plant response rating, Wheat ([14]; 500 g ai/ha) | Plant response rating, Wheat ([19]; 125 g ai/ha) | Plant response rating, Corn ([20]; 125 g ai/ha)
50: Plant response rating, Barnyardgrass ([3]; 500 g ai/ha) | Plant response rating, Crabgrass, Large ([8]; 500 g ai/ha) | Plant response rating, Velvetleaf ([9]; 500 g ai/ha) | Plant response rating, Sedge, Umbrella [10] | Plant response rating, Pigweed ([13]; 125 g ai/ha)
90: Plant response rating, Pigweed ([12]; 125 g ai/ha) | Plant response rating, Pigweed ([13]; 500 g ai/ha)
60: Plant response rating, Ducksalad [17]

Clc1cnc(Oc2cccnc2-n2cc(-c3ccccc3)cn2)nc1 [Compound 4]
10: Plant response rating, Morningglory ([11]; 500 g ai/ha) | Plant response rating, Rice [15]
70: Plant response rating, Sedge, Umbrella [10] | Plant response rating, Pigweed ([12]; 500 g ai/ha)
30: Plant response rating, Corn ([20]; 500 g ai/ha)
20: Plant response rating, Barnyardgrass ([2]; 500 g ai/ha) | Plant response rating, Pigweed ([12]; 125 g ai/ha)
0: Plant response rating, Velvetleaf ([1]; 125 g ai/ha) | Plant response rating, Velvetleaf ([1]; 500 g ai/ha) | Plant response rating, Barnyardgrass ([2]; 125 g ai/ha) | Plant response rating, Barnyardgrass ([3]; 125 g ai/ha) | Plant response rating, Barnyardgrass ([3]; 500 g ai/ha) | Plant response rating, Foxtail, Giant ([4]; 125 g ai/ha) | Plant response rating, Foxtail, Giant ([4]; 500 g ai/ha) | Plant response rating, Foxtail, Giant ([5]; 125 g ai/ha) | Plant response rating, Foxtail, Giant ([5]; 500 g ai/ha) | Plant response rating, Corn ([6]; 125 g ai/ha) | Plant response rating, Corn ([6]; 500 g ai/ha) | Plant response rating, Morningglory ([7]; 125 g ai/ha) | Plant response rating, Morningglory ([7]; 500 g ai/ha) | Plant response rating, Crabgrass, Large ([8]; 125 g ai/ha) | Plant response rating, Crabgrass, Large ([8]; 500 g ai/ha) | Plant response rating, Velvetleaf ([9]; 125 g ai/ha) | Plant response rating, Velvetleaf ([9]; 500 g ai/ha) | Plant response rating, Morningglory ([11]; 125 g ai/ha) | Plant response rating, Pigweed ([13]; 125 g ai/ha) | Plant response rating, Pigweed ([13]; 500 g ai/ha) | Plant response rating, Wheat ([14]; 125 g ai/ha) | Plant response rating, Wheat ([14]; 500 g ai/ha) | Plant response rating, Crabgrass, Large ([16]; 125 g ai/ha) | Plant response rating, Crabgrass, Large ([16]; 500 g ai/ha) | Plant response rating, Ducksalad [17] | Plant response rating, Wheat ([19]; 125 g ai/ha) | Plant response rating, Wheat ([19]; 500 g ai/ha) | Plant response rating, Corn ([20]; 125 g ai/ha)

FC(F)(F)c1cc(-c2ncccc2Oc2ncc(Cl)cn2)ccn1 [Compound 14]
80: Plant response rating, Kochia ([27]; 125 g ai/ha)
0: Plant response rating, Rice [15] | Plant response rating, Ragweed ([25]; 125 g ai/ha) | Plant response rating, Barnyardgrass [18] | Plant response rating, Wheat ([19]; 125 g ai/ha)
30: Plant response rating, Ragweed ([22]; 500 g ai/ha) | Plant response rating, Ryegrass, Italian ([26]; 125 g ai/ha)
50: Plant response rating, Sedge, Umbrella [10] | Plant response rating, Galium ([24]; 125 g ai/ha)
40: Plant response rating, Barnyardgrass ([2]; 125 g ai/ha) | Plant response rating, Barnyardgrass ([3]; 125 g ai/ha) | Plant response rating, Ducksalad [17] | Plant response rating, Corn ([20]; 500 g ai/ha) | Plant response rating, Ryegrass, Italian ([26]; 500 g ai/ha)
60: Plant response rating, Barnyardgrass ([2]; 500 g ai/ha) | Plant response rating, Foxtail, Giant ([5]; 125 g ai/ha)
20: Plant response rating, Ryegrass, Italian ([23]; 500 g ai/ha) | Plant response rating, Ragweed ([25]; 500 g ai/ha) | Plant response rating, Corn ([20]; 125 g ai/ha)
100: Plant response rating, Barnyardgrass ([3]; 500 g ai/ha) | Plant response rating, Foxtail, Giant ([4]; 500 g ai/ha) | Plant response rating, Pigweed ([12]; 125 g ai/ha) | Plant response rating, Pigweed ([12]; 500 g ai/ha) | Plant response rating, Pigweed ([13]; 125 g ai/ha) | Plant response rating, Pigweed ([13]; 500 g ai/ha) | Plant response rating, Kochia ([27]; 500 g ai/ha) | Plant response rating, Kochia ([28]; 125 g ai/ha) | Plant response rating, Kochia ([28]; 500 g ai/ha)
90: Plant response rating, Blackgrass ([21]; 500 g ai/ha) | Plant response rating, Foxtail, Giant ([4]; 125 g ai/ha) | Plant response rating, Foxtail, Giant ([5]; 500 g ai/ha) | Plant response rating, Galium ([24]; 500 g ai/ha)
10: Plant response rating, Blackgrass ([21]; 125 g ai/ha) | Plant response rating, Ragweed ([22]; 125 g ai/ha) | Plant response rating, Ryegrass, Italian ([23]; 125 g ai/ha) | Plant response rating, Wheat ([19]; 500 g ai/ha)

From patent US11006631B2, “Substituted pyrimidinyloxy pyridine derivatives as herbicides” (FMC Corporation, priority 2015, dated 2021)
